# Values quoted from earlier work as cited in patent US20050266049A1, “Method for the covering of food with polyene antifungal compositions” (D S M IP Assets B.V., priority 2002, published 2005).
# What was measured:
# [1] = tested on: most foodborn fungi
structure (smiles),measurement,setting,value
C[C@@H]1C/C=C/C=C/C=C/C=C/[C@H](O[C@@H]2O[C@H](C)[C@@H](O)[C@H](N)[C@@H]2O)C[C@@H]2O[C@](O)(C[C@@H](O)C[C@H]3O[C@@H]3/C=C/C(=O)O1)C[C@H](O)[C@H]2C(=O)O [natamycin],solubility of natamycin in water,,30-50 ppm
same,Minimal Inhibitory Concentration (MIC),[1],less than 10 ppm
